Measured values: patent US20050209106A1, “Substituted 4-(4-trifluoromethylpyrazolyl)pyrimidines” (Bayer CropScience GmbH, priority 2004, published 2005)

Experiments:
Type in all cases: in vivo
Amaranthus retroflexus [1] = assay: Herbicidal pre-emergence action against harmful plants; conditions: dosage of 1000 g and less than 1000 g of active substance per hectare, visual scoring after 3 to 4 weeks, greenhouse
Excerpt: (§1) 1. Herbicidal Pre-Emergence Action Against Harmful Plants
(§2) Seeds of mono- and dicotyledonous harmful plants are put in sandy loam in cardboard pots and covered with soil. The compounds according to the invention, which are formulated in the form of wettable powders or emulsion concentrates, are then applied to the surface of the soil cover as an aqueous suspension or emulsion at an application rate of 600 to 800 l/ha (converted) in various dosages. After the treatment, the pots are placed in a greenhouse and kept under good growth conditions for the weeds. Visual scoring of the plant damage or emergence damage is carried out after the test plants have emerged after a test period of 3 to 4 weeks in comparison with untreated controls.

Lolium multiflorum = assay: as above; conditions: dosage of 1000 g and less than 1000 g of active substance per hectare, visual scoring after 3 to 4 weeks, greenhouse
Excerpt: as §1, §2

Setaria viridis = assay: as above; conditions: dosage of 1000 g and less than 1000 g of active substance per hectare, visual scoring after 3 to 4 weeks, greenhouse
Excerpt: as §1, §2

Stellaria media [2] = assay: as above; conditions: dosage of 1000 g and less than 1000 g of active substance per hectare, visual scoring after 3 to 4 weeks, greenhouse
Excerpt: as §1, §2

Sinapis arvensis = assay: Herbicidal post-emergence action against harmful plants; conditions: three-leaf stage, dosage of 1000 g and less than 1000 g of active substance per hectare, scored after 3 to 4 weeks, greenhouse
Procedure: (§3) 2. Herbicidal Post-Emergence Action Against Harmful Plants
(§4) Seeds of mono- and dicotyledonous harmful plants are put into sandy loam in cardboard pots, covered with soil and grown in the greenhouse under good growth conditions. Two to three weeks after sowing, the test plants are treated at the three-leaf stage. The compounds according to the invention, which are formulated as wettable powders or as emulsion concentrates, are sprayed onto the surface of the green plant parts in various dosages at a water application rate of 600 to 800 l/ha (converted). After the test plants have been left to stand in the greenhouse for 3 to 4 weeks under optimum growth conditions, the action of the compounds is scored.

Amaranthus retroflexus [3] = assay: as above; conditions: three-leaf stage, dosage of 1000 g and less than 1000 g of active substance per hectare, scored after 3 to 4 weeks, greenhouse
Procedure: as §3, §4

Stellaria media [4] = assay: as above; conditions: three-leaf stage, dosage of 1000 g and less than 1000 g of active substance per hectare, scored after 3 to 4 weeks, greenhouse
Procedure: as §3, §4

Avena fatua = assay: as above; conditions: three-leaf stage, dosage of 1000 g and less than 1000 g of active substance per hectare, scored after 3 to 4 weeks, greenhouse
Procedure: as §3, §4

COc1cc(-n2ncc(C(F)(F)F)c2C)nc(Oc2ccnc(C(F)(F)F)c2)n1 [1.39]
100%: action against Amaranthus retroflexus (Amaranthus retroflexus [1]) | action against Lolium multiflorum (Lolium multiflorum) | action against Setaria viridis (Setaria viridis) | action against Stellaria media (Stellaria media [2])

CCc1cc(-n2cc(C(F)(F)F)cn2)nc(Oc2cc(C(F)(F)F)nn2C)n1 [9.25]
100%: action against Sinapis arvensis (Sinapis arvensis) | action against Amaranthus retroflexus (Amaranthus retroflexus [3]) | action against Stellaria media (Stellaria media [4]) | action against Avena fatua (Avena fatua)

CCc1cc(-n2cc(C(F)(F)F)c(C)n2)nc(Oc2ccnc(C(F)(F)F)c2)n1 [1.26]
100%: action against Amaranthus retroflexus (Amaranthus retroflexus [1]) | action against Lolium multiflorum (Lolium multiflorum) | action against Setaria viridis (Setaria viridis) | action against Stellaria media (Stellaria media [2])

Cc1cc(-n2cc(C(F)(F)F)c(C)n2)nc(Oc2ccnc(C(F)(F)F)c2)n1 [1.14]
100%: action against Amaranthus retroflexus (Amaranthus retroflexus [1]) | action against Lolium multiflorum (Lolium multiflorum) | action against Setaria viridis (Setaria viridis) | action against Stellaria media (Stellaria media [2])

Cc1cc(-n2cc(C(F)(F)F)cn2)nc(Oc2csc(C(F)(F)F)c2)n1 [7.13]
100%: action against Amaranthus retroflexus (Amaranthus retroflexus [1]) | action against Setaria viridis (Setaria viridis) | action against Stellaria media (Stellaria media [2])

Cc1cc(-n2cc(C(F)(F)F)cn2)nc(Oc2cc(C(F)(F)F)nn2C)n1 [9.13]
100%: action against Amaranthus retroflexus (Amaranthus retroflexus [1]) | action against Setaria viridis (Setaria viridis) | action against Stellaria media (Stellaria media [2])

Cc1cc(-n2cc(C(F)(F)F)c(C)n2)nc(Oc2cc(C(F)(F)F)nn2C)n1 [9.14]
100%: action against Amaranthus retroflexus (Amaranthus retroflexus [1]) | action against Setaria viridis (Setaria viridis) | action against Stellaria media (Stellaria media [2])

COc1cc(-n2cc(C(F)(F)F)cn2)nc(Oc2ccnc(OC(F)F)c2)n1 [1.46]
100%: action against Amaranthus retroflexus (Amaranthus retroflexus [1]) | action against Lolium multiflorum (Lolium multiflorum) | action against Setaria viridis (Setaria viridis) | action against Stellaria media (Stellaria media [2]) | action against Sinapis arvensis (Sinapis arvensis) | action against Amaranthus retroflexus (Amaranthus retroflexus [3]) | action against Stellaria media (Stellaria media [4]) | action against Avena fatua (Avena fatua)
